# Measurements as given in article PMC12040169 (PLOS Biology, 2025).
# Assay: in vitro
# Conditions: human, hela cells, % viability
row,Structure (SMILES),"viability at 28.5 h, 10 µM [%]"
1,Cc1ccc(S(=O)(=O)Nc2nc(C)cs2)cc1 [CBK102326],100
2,CCOC(=O)CC1C(=O)NCCN1Cc1ccoc1 (stereo not drawn) [CBK270066],92.4
3,Cc1ccc(CN2CC(C(=O)N3CCC(C(=O)O)CC3)CC2=O)cc1 (stereo not drawn) [CBK300205],91.8
4,Nc1ccc2cc3ccc(N)cc3nc2c1 [CBK024003G],71
5,C=C1S/C(=N\c2cc(Cl)cc(Cl)c2)NC1(CC)CC [CBK009484],109
6,Cc1cc2c(s1)c1cnn(CC(=O)OC(C)C)c(=O)c1n2C [CBK284247],102
7,CC(C)(C)NC(=O)C[C@@H]1CCNC[C@@H]1Cc1cc(-c2ccc(F)cc2)on1 [CBK288802],99.2
8,O=C(O)c1ccc(OCC(O)Cn2nnc3ccccc32)cc1 (stereo not drawn) [CBK286616],103
9,CCn1c2cc(C)sc2c2cnn(CC(=O)OC)c(=O)c21 [CBK284186],86.3
10,CCn1c(SCc2nc(-c3cccs3)no2)nnc1-c1c[nH]c2ccccc12 [CBK268607],104
11,OCc1ccc(-c2nccnc2NCc2cccc(C(F)(F)F)c2)cc1 [CBK037076],114
12,Cc1oc(C(=O)Nc2ccc(C(=O)O)cc2)cc1COc1ccccc1 [CBK263273],94.2
13,COc1cccc(/C=C2/SC(=S)NC2=O)c1OCCCOc1ccc(C)cc1C [CBK264441],94.8
14,Cn1c(SCC(=O)c2ccc(F)cc2)ncc(C(=O)Nc2ccccc2)c1=O [CBK287672],111
15,CCNC(=O)N1Cc2nc[nH]c2C[C@H]1C(=O)NCc1ccc(C#N)cc1 [CBK288975],96.2
16,CC(=O)N1CCc2nc(C)nc(N(C)Cc3cnn(C(C)C)c3)c2CC1 [CBK306968],83.1
17,O=C1Cc2cc3ccccc3cc2C2(CCN(CCC(F)=C(F)F)CC2)N1 [CBK040033],94.6
18,Cn1cc(C(=O)N2CCC3(C/C=C/C[C@H]4COCC[C@H]4NC(=O)CNC3=O)CC2)cn1 [CBK292069],103
19,COC(=O)Cn1c(=O)sc2cccc(Cl)c21 [CBK026076],93.9
20,O=C(Cn1nc(C(=O)O)c2ccccc2c1=O)c1ccc(S(=O)(=O)N2CCOCC2)cc1 [CBK296939],90.2
21,Clc1cccc(CNc2cncc(-c3cccnc3)n2)c1 [CBK065283],104

row,Structure (SMILES),"viability at 28.5 h, 10 µM [%]"
1,COC(=O)[C@@H]1CN(C(=O)C2CCCC2)CCN1C(=O)c1cccs1 [CBK289609],93.5
2,CN1C(=O)CC2(C1=O)C(=O)N(CCCOc1ccc(F)cc1)c1ccccc12 (stereo not drawn) [CBK075513],108
3,CN(C)CCN1CCN(c2ccc(-c3ccc(OC(F)(F)F)cc3)cn2)CC1 [CBK036796],94.7
4,Cc1nc(N)nc(NCC2CCN(C3CC3)C2)c1Cl (stereo not drawn) [CBK306575],85.9
5,NC(=O)COc1ccc(CNC(=O)CN2CCc3ccccc32)cc1 [CBK306330],96.1
6,O=C(c1ccc(Br)o1)n1cc(C(F)(F)F)ccc1=O [CBK022391],108
7,CC(Oc1ccccc1)C(=O)Nc1cccc(-c2nnc(-c3ccccc3)o2)c1 (stereo not drawn) [CBK262822],91.2
8,Cc1c(F)cccc1CN1CCN(S(=O)(=O)c2ccc(C(=O)c3ccccc3)cc2)CC1 [CBK062929],102
9,O=C(Nc1cccc(Cl)c1)N1CCCC(c2nc(-c3ccccc3)c3ccccn23)C1 (stereo not drawn) [CBK047233],90.4
10,CSc1nnc(NS(=O)(=O)c2ccccc2C)s1 [CBK144918],97.4
11,CC(C)C1CC(CCNCc2ccc(N(C)C)cc2)(c2ccccc2)CCO1 (stereo not drawn) [CBK266210],98.9
12,Cc1ccc(S(N)(=O)=O)cc1NC(=O)c1ccc[nH]1 [CBK050200],91.2
13,O=C(CCCOc1ccccc1)Nc1cccnc1N1CCNCC1 [CBK028258T],97.3
14,Cn1c(=O)c(C(=O)Nc2ccc(OCc3ccccc3F)cc2)nc2ccccc21 [CBK285820],103
15,COCCNc1cc(-c2ccc(F)c(F)c2)ncn1 [CBK090800],100
16,O=C(CSc1n[nH]c(=O)[nH]c1=O)N/N=C/c1ccc(O)cc1 [CBK263488],95.4
17,CC(=O)N1CCc2nc(C)nc(NCCn3cccc3)c2CC1 [CBK307130],83.7
18,CCNC(=O)N1CC2(CCN(Cc3ccc4ccccc4c3)CC2)c2ccccc21 [CBK126696],90
19,CCc1nc2ccc(C(=O)NCCc3c[nH]c4ccccc34)cn2c1N(C)Cc1ccncc1 [CBK145636],99.7
20,COc1ccc(NC(S)=NCCN2CCC(C)CC2)cc1Cl [CBK267268],84
21,CC(=O)N[C@H](C(=O)N1CC[C@H]2NC(=O)[C@@H](Cc3ccccc3)NC(=O)C3(C/C=C/C[C@H]2C1)CCOCC3)[C@@H](C)OC(C)(C)C [CBK292203],103

row,Structure (SMILES),"viability at 28.5 h, 10 µM [%]"
1,CCC(NC(=O)c1ccc(C(C)(C)C)[nH]c1=O)c1ccc(OC)cc1 (stereo not drawn) [CBK282940],87.8
2,O=C(CN1C(=O)c2ccccc2C1=O)Nc1sc2c(c1C(=O)NCC1CCCO1)CCC2 (stereo not drawn) [CBK265583],109
3,COc1ccc(C(=O)O)cc1S(=O)(=O)Nc1cccc(C=Cc2ccccn2)c1 [CBK297763],110
4,O=C(Nc1ccc(Cl)cc1)NC(C(=O)O)c1ccccc1 (stereo not drawn) [CBK267405],94.9
5,C[C@H](Nc1nc(-c2cccc(C(N)=O)c2)cnc1N)c1ccccc1 [CBK063715],97.1
6,COc1ccc(-c2cc(C(=O)NCC(F)(F)F)cnc2-c2ccc(Cl)cc2)cn1 [CBK036698],103
7,O=C(NCC(c1ccccc1)c1ccccc1)N1CCN(Cc2ccccc2)CC1 [CBK155651],83.9
8,Cc1cc(C(=O)N2CC[C@H]3NC(=O)c4ccccc4OCCCCC[C@H]3C2)no1 [CBK292005],91.8
9,CC(=O)N1CCC2(CCCC[C@H]3CN(C(C)C)CC[C@@H]3NC(=O)CNC2=O)CC1 [CBK292133],102
10,Cc1c(S(=O)(=O)NCCN(C)C)sc2ccc(C(C)C)cc12 [CBK170357],90.2
11,Cc1ccc(/C=C/C(=O)O)cc1S(=O)(=O)NC1CCS(=O)(=O)C1 (stereo not drawn) [CBK264409],96.1
12,N=c1n(CCCOc2ccccc2Cl)c2ccccc2n1CC(N)=O [CBK268927C],106
13,CC(Cc1ccccn1)NC(=O)c1cc(-c2ccccc2F)no1 (stereo not drawn) [CBK281421],91.1
14,COc1ccc(Cl)cc1NC(=O)COc1cccc2ccccc12 [CBK262995],94.9
15,Cc1c(Cl)cccc1S(=O)(=O)Nc1c(C(=O)O)[nH]c2ccccc12 [CBK049889],86.5
16,CC(=O)Nc1cccc(C(=O)N2CCC(OCc3ccccn3)CC2)c1 [CBK307009],114
17,CC(NC(=O)N(CCCN)Cc1c[nH]c(-c2ccccc2)n1)c1cccc2ccccc12 (stereo not drawn) [CBK034672C],119
18,O=C(Nc1cc2ccccc2c(Br)n1)Nc1ccc(F)cc1C(F)(F)F [CBK063278],96.3
19,COc1ncc(-c2cncc(N3CCCN(C)CC3)n2)c(OC)n1 [CBK065286],104
20,COc1ccc(CNC(=O)CN2CCCCC2Cn2cccn2)cc1 (stereo not drawn) [CBK305379],93.1
21,CN(C)CCN1CCN(c2nc(-c3ccc(S(C)(=O)=O)cc3)cnc2N)CC1 [CBK063457],100
